From ChEMBL document CHEMBL3885861, “Open TG-GATES”

Organism: Rattus norvegicus
Assay: Open TG-GATES - Regimen: Single
Assay type: toxicity, organism-based, Sprague-Dawley
Set-up: regimen Single, gender Male, age 6 weeks
Conditions: in vivo, po, 20 mg/kg, route gavage, dose level Low; for APTT / Bas / Eos / Fbg / Hb / Ht / Lym / MCH / MCHC / MCV / Mono / Neu / PT / Plat / RBC / Ret / WBC: tissue Blood; for KIDNEY_TOTAL: tissue Kidney; for LIVER: tissue Liver; for A/G / ALP / ALT / AST / BUN / CRE / Ca / Cl / DBIL / GLC / IP / K / LDH / Na / PL / RALB / TBIL / TC / TG / TP / gamma-GTP: tissue Plasma

With `CN(CCOc1ccc(CC2SC(=O)NC2=O)cc1)c1ccccn1.O=C(O)/C=C\C(=O)O` (centres undefined) [ROSIGLITAZONE MALEATE] the TERMINAL_BW (3 h) was 211.2 g, the APTT (3 h) was 16 s and the Bas (3 h) was 0%. The Eos (3 h) was 0.6%, the Fbg (3 h) was 208.6 mg/dL and the Hb (3 h) was 13.1 g/dL. It also gave a Ht (3 h) of 39.8%, a Lym (3 h) of 75.6% and an MCH (3 h) of 21.5 pg. For the same compound, the MCHC (3 h) was 32.9%, the MCV (3 h) was 65.3 fL and the Mono (3 h) was 9.2%. It also gave a Neu (3 h) of 14.2%, a PT (3 h) of 12.2 s and a Plat (3 h) of 111.6 x10_4/uL. For the same compound, the RBC (3 h) was 609 x10_4/ul, the Ret (3 h) was 8.8% and the WBC (3 h) was 102 x10_2/uL. For the same compound, the KIDNEY_TOTAL (3 h) was 0.8 g, the LIVER (3 h) was 10.3 g and the A/G (3 h) was 2.1. It also gave an ALP (3 h) of 1342 IU/L, an ALT (3 h) of 38.8 IU/L and an AST (3 h) of 70.4 IU/L. The BUN (3 h) was 13.2 mg/dL, the CRE (3 h) was 0.4 mg/dL and the Ca (3 h) was 11.2 mg/dL. It also gave a Cl (3 h) of 103.2 meq/L, a DBIL (3 h) of 0.016 mg/dL and a GLC (3 h) of 179.2 mg/dL. The IP (3 h) was 8.4 mg/dL, the K (3 h) was 4.3 meq/L and the LDH (3 h) was 104 IU/L. For the same compound, the Na (3 h) was 139.6 meq/L, the PL (3 h) was 151.2 mg/dL and the RALB (3 h) was 3.6 g/dL. It also gave a TBIL (3 h) of 0.052 mg/dL, a TC (3 h) of 84.4 mg/dL and a TG (3 h) of 113.4 mg/dL. It also gave a TP (3 h) of 5.4 g/dL, a gamma-GTP (3 h) of 0.6 IU/L and a TERMINAL_BW (6 h) of 199.3 g. For the same compound, the APTT (6 h) was 16.4 s, the Bas (6 h) was 0% and the Eos (6 h) was 0.8%. It also gave a Fbg (6 h) of 208.8 mg/dL, a Hb (6 h) of 13.1 g/dL and a Ht (6 h) of 39.8%. For the same compound, the Lym (6 h) was 78%, the MCH (6 h) was 21.3 pg and the MCHC (6 h) was 32.8%. It also gave an MCV (6 h) of 64.9 fL, a Mono (6 h) of 6.4% and a Neu (6 h) of 15.2%. For the same compound, the PT (6 h) was 12.1 s, the Plat (6 h) was 118.2 x10_4/uL and the RBC (6 h) was 614.6 x10_4/ul. For the same compound, the Ret (6 h) was 8.5%, the WBC (6 h) was 114.2 x10_2/uL and the KIDNEY_TOTAL (6 h) was 0.7 g. The LIVER (6 h) was 8.7 g, the A/G (6 h) was 2.5 and the ALP (6 h) was 1335.2 IU/L. For the same compound, the ALT (6 h) was 37 IU/L, the AST (6 h) was 73 IU/L and the BUN (6 h) was 9.2 mg/dL. The CRE (6 h) was 0.4 mg/dL, the Ca (6 h) was 11.1 mg/dL and the Cl (6 h) was 103.6 meq/L. For the same compound, the DBIL (6 h) was 0.014 mg/dL, the GLC (6 h) was 184.6 mg/dL and the IP (6 h) was 9.6 mg/dL. For the same compound, the K (6 h) was 4.3 meq/L, the LDH (6 h) was 72.8 IU/L and the Na (6 h) was 138.2 meq/L. The PL (6 h) was 135.2 mg/dL, the RALB (6 h) was 3.7 g/dL and the TBIL (6 h) was 0.048 mg/dL. The TC (6 h) was 82.4 mg/dL, the TG (6 h) was 73.8 mg/dL and the TP (6 h) was 5.2 g/dL. It also gave a gamma-GTP (6 h) of 0.8 IU/L, a TERMINAL_BW (9 h) of 198.4 g and an APTT (9 h) of 16.5 s. For the same compound, the Bas (9 h) was 0%, the Eos (9 h) was 1% and the Fbg (9 h) was 219 mg/dL. The Hb (9 h) was 12.7 g/dL, the Ht (9 h) was 38.2% and the Lym (9 h) was 73%. It also gave an MCH (9 h) of 21.7 pg, an MCHC (9 h) of 33.3% and an MCV (9 h) of 65.1 fL. The Mono (9 h) was 6%, the Neu (9 h) was 20.4% and the PT (9 h) was 12.2 s. It also gave a Plat (9 h) of 118 x10_4/uL, an RBC (9 h) of 586.6 x10_4/ul and a Ret (9 h) of 9%. The WBC (9 h) was 90.8 x10_2/uL, the KIDNEY_TOTAL (9 h) was 0.7 g and the LIVER (9 h) was 8.5 g. It also gave an A/G (9 h) of 2.4, an ALP (9 h) of 1181.6 IU/L and an ALT (9 h) of 35.2 IU/L. For the same compound, the AST (9 h) was 64.4 IU/L, the BUN (9 h) was 12.2 mg/dL and the CRE (9 h) was 0.3 mg/dL. It also gave a Ca (9 h) of 11 mg/dL, a Cl (9 h) of 104.6 meq/L and a DBIL (9 h) of 0.01 mg/dL. For the same compound, the GLC (9 h) was 192.4 mg/dL, the IP (9 h) was 10.3 mg/dL and the K (9 h) was 4.2 meq/L. For the same compound, the LDH (9 h) was 80.6 IU/L, the Na (9 h) was 140 meq/L and the PL (9 h) was 130.6 mg/dL. For the same compound, the RALB (9 h) was 3.8 g/dL, the TBIL (9 h) was 0.044 mg/dL and the TC (9 h) was 78.4 mg/dL. For the same compound, the TG (9 h) was 57.6 mg/dL, the TP (9 h) was 5.3 g/dL and the gamma-GTP (9 h) was 0.8 IU/L. It also gave a TERMINAL_BW (24 h) of 217.5 g, an APTT (24 h) of 15.7 s and a Bas (24 h) of 0%. For the same compound, the Eos (24 h) was 1%, the Fbg (24 h) was 232 mg/dL and the Hb (24 h) was 12.8 g/dL. For the same compound, the Ht (24 h) was 39%, the Lym (24 h) was 74.2% and the MCH (24 h) was 21.3 pg. The MCHC (24 h) was 32.9%, the MCV (24 h) was 64.8 fL and the Mono (24 h) was 8%. The Neu (24 h) was 17%, the PT (24 h) was 11.4 s and the Plat (24 h) was 119.2 x10_4/uL. The RBC (24 h) was 602.6 x10_4/ul, the Ret (24 h) was 7.1% and the WBC (24 h) was 95 x10_2/uL. The KIDNEY_TOTAL (24 h) was 0.7 g, the LIVER (24 h) was 11.3 g and the A/G (24 h) was 2.4. The ALP (24 h) was 1603.4 IU/L, the ALT (24 h) was 34.2 IU/L and the AST (24 h) was 66.2 IU/L. For the same compound, the BUN (24 h) was 16 mg/dL, the CRE (24 h) was 0.4 mg/dL and the Ca (24 h) was 11.3 mg/dL. The Cl (24 h) was 104.2 meq/L, the DBIL (24 h) was 0.014 mg/dL and the GLC (24 h) was 190.2 mg/dL. The IP (24 h) was 7.7 mg/dL, the K (24 h) was 4.3 meq/L and the LDH (24 h) was 102 IU/L. For the same compound, the Na (24 h) was 141 meq/L, the PL (24 h) was 153.4 mg/dL and the RALB (24 h) was 3.9 g/dL. It also gave a TBIL (24 h) of 0.034 mg/dL, a TC (24 h) of 87.4 mg/dL and a TG (24 h) of 128.2 mg/dL. For the same compound, the TP (24 h) was 5.5 g/dL and the gamma-GTP (24 h) was 1 IU/L.
